This test concerns the target T1, full-length rat TRPV2 (rTRPV2) (Rattus norvegicus, UniProt Q9WUD2).
T1 sequence (Q9WUD2 1-761): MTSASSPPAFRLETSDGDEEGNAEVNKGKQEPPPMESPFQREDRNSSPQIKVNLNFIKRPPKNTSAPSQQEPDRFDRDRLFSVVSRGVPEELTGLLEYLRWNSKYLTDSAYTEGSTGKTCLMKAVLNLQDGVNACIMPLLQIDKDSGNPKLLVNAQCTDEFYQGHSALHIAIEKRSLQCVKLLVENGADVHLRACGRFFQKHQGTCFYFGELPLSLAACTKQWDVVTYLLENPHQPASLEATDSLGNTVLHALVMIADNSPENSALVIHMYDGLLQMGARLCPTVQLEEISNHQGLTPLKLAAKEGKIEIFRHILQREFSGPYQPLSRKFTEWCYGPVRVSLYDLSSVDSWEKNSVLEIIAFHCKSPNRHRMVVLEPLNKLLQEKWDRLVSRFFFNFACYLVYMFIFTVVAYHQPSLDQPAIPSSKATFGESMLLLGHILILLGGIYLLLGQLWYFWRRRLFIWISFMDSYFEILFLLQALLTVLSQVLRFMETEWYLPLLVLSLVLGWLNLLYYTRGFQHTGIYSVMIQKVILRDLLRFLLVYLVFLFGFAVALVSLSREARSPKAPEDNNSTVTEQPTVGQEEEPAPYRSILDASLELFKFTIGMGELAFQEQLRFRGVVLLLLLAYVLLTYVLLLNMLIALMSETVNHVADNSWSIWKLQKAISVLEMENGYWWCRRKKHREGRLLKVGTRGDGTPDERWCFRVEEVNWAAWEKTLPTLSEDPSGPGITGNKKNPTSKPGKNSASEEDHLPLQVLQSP
Put plainly: cryo-EM structure. The format is binding.

For `COc1cc(/C=C/C(=O)N2CCC=CC2=O)cc(OC)c1OC` [PL, piperlongumine], the “cryo-EM structure (3.5 Å, C4 symmetry)” value was “The cryo-EM density map and atomic coordinates of PL-bound rat TRPV2 are deposited”.

The values are drawn from PMC8161495 (ACS Central Science, 2021).
